According to patent US20250090437A1, “COSMETIC COMPOUNDING AGENT, COSMETIC AND PRODUCTION METHOD THEREOF” (MIYOSHI OIL & FAT CO., LTD., priority 2019, published 2025):

Assays:
[1] = Water retention property test 3 (long term); format: physicochemical; details: for Amount of moisture reduction in 0 to 24 h / Amount of moisture reduction in 24 to 96 h / Amount of moisture reduction per hour / Pre-test moisture rate / Moisture rate after 24 h / Moisture rate after 96 h / Amount of moisture reduction in 96 to 120 h / Moisture rate after 120 h: 80 wt % aqueous solution; for Amount of moisture reduction in 0 to 24 h / Amount of moisture reduction in 24 to 96 h / Amount of moisture reduction in 96 to 120 h: 1.0 g; for Amount of moisture reduction in 0 to 24 h / Amount of moisture reduction in 24 to 96 h / Amount of moisture reduction per hour / Moisture rate after 24 h / Moisture rate after 96 h / Amount of moisture reduction in 96 to 120 h / Moisture rate after 120 h: 40° C. and 25% RH; for Pre-test moisture rate: before the test; for Moisture rate after 24 h / Moisture rate after 96 h / Moisture rate after 120 h: unsealed
Procedure: In a water retention property test 3, an 80 wt % aqueous solution of each of the compounds C8, C11, C62, C63 and C64 was prepared, followed by using a Karl Fischer moisture meter to confirm that a moisture rate was 20.0 wt %. Next, 1.0 g of each of these samples was added to a screw tube, and this screw tube, while remaining unsealed, was then left to stand still in a thermo-hygrostat set to 40° C. and 25% RH. […] In addition, the water retention property was evaluated by calculating an amount of moisture reduction per hour (mg/h) based on each amount of moisture reduction (mg).

[2] = Water retention property and adherability with respect to healthy hair; design: species or system human
Procedure: In the following evaluations, a human black hair produced by Beaulax Co., Ltd was used as a healthy hair. A damaged hair was prepared by repeatedly having the healthy hair permed and bleached three times.
An 80 wt % aqueous solution of each of the compounds B1 to B26 (content in terms of anhydride in the cases of the compounds B1 to B23) was prepared, followed by using a Karl Fischer moisture meter (KF-200 by Mitsubishi Chemical Analytech Co., Ltd.) to confirm that a moisture rate was 20.0 wt %. As a healthy hair, there was used a chemically untreated healthy hair (human black hair by Beaulax Co., Ltd). The moisture rate (pre-test moisture rate A) of the hair was measured by an infrared moisture meter (by Kett Electric Laboratory).
After immersion, the hair was taken out, and KimWipes were then used to wipe off the compound until a change in weight was no longer observed, followed by measuring the weight of the hair (post-test hair weight B). The hair from which the compound had been wiped off was then placed into a thermo-hygrostat set to 40° C. and 35 to 40% RH. A moisture rate after 24 hours (post-test moisture rate B) was then measured, followed by calculating a rate of reduction in moisture with the following formula. Likewise, instead of the 80 wt % aqueous solution, evaluation was also performed in a similar manner using only an ion-exchange water (comparative example B4).
Further, an adhesion rate of the compound adhering to the hair was calculated with the following formula. […]

[3] = Water retention property test 1; format: physicochemical; details: 80 wt % aqueous solution; for Water retention property test 1 Post-test moisture rate / Water retention property test 1 Rate of reduction in moisture / Post-test moisture rate / Rate of reduction in moisture: 24 hours at 40° C. and 25% RH; for Pre-test moisture rate: before the test (Karl Fischer); for Post-test moisture rate / Rate of reduction in moisture: unsealed
Procedure: A moisture rate after 24 hours was again measured (post-test moisture rate: B), followed by using the formula below to calculate a rate of reduction in moisture so as to evaluate the water retention property. • Pre-test moisture rate: A (%) • Post-test moisture rate: B (%)

## CCCC[N+](CCCC)(CCCC)CCCC.[Br-] [Comparative example C13]
[1]; 0~24 h
  Amount of moisture reduction in 0 to 24 h: 49.1 mg
  Amount of moisture reduction per hour: 2.0 mg/h
[1]; 24~96 h
  Amount of moisture reduction in 24 to 96 h: 145.8 mg
  Amount of moisture reduction per hour: 2.0 mg/h
[1]
  Pre-test moisture rate: 20.0%
  Moisture rate after 24 h: 15.9%
  Moisture rate after 96 h: 0.7%

## CCCCn1cc[n+](C)c1.F[B-](F)(F)F [Comparative example C14]
[1]; 0~24 h
  Amount of moisture reduction in 0 to 24 h: 64.3 mg
  Amount of moisture reduction per hour: 2.7 mg/h
[1]; 24~96 h
  Amount of moisture reduction in 24 to 96 h: 134.4 mg
[1]
  Pre-test moisture rate: 20.0%
  Moisture rate after 24 h: 14.5%
  Moisture rate after 96 h: 0.0%

## OCC(O)CO [Comparative example C15]
[1]; 0~24 h
  Amount of moisture reduction in 0 to 24 h: 24.6 mg
  Amount of moisture reduction per hour: 1.0 mg/h
[1]; 24~96 h
  Amount of moisture reduction in 24 to 96 h: 74.8 mg
  Amount of moisture reduction per hour: 1.0 mg/h
[1]; 96~120 h
  Amount of moisture reduction in 96 to 120 h: 25.0 mg
  Amount of moisture reduction per hour: 1.0 mg/h
[1]
  Pre-test moisture rate: 20.0%
  Moisture rate after 24 h: 18.0%
  Moisture rate after 96 h: 11.1%
  Moisture rate after 120 h: 8.6%

## O [Compound B8]
[2]; healthy hair immersed 60 min in 80 wt % aqueous solution
  Compound adhesion rate: 1.3%
[2]; healthy hair immersed 60 min in 80 wt % aqueous solution, after 24 hours at 40° C., 35 to 40% RH, pre-test 7.6%
  Post-test moisture rate: 6.1%
[2]; healthy hair, 80 wt % aqueous solution, 24 hours at 40° C., 35 to 40% RH
  Rate of reduction in moisture: 20%

## C[N+](C)(C)CCO.O=C([O-])CCC(=O)O [Compound C31]
[3]
  Water retention property test 1 Pre-test moisture rate: 20.0%
  Water retention property test 1 Post-test moisture rate: 19.0%
  Water retention property test 1 Rate of reduction in moisture: 5.5%

## CS(=O)(=O)[O-].C[N+](C)(C)CCO [Compound C32]
[3]
  Water retention property test 1 Pre-test moisture rate: 20.0%
  Water retention property test 1 Post-test moisture rate: 19.6%
  Water retention property test 1 Rate of reduction in moisture: 2.2%

## C[N+](C)(C)CCO.O=P([O-])(O)O [Compound C33]
[3]
  Water retention property test 1 Pre-test moisture rate: 20.0%
  Water retention property test 1 Post-test moisture rate: 19.4%
  Water retention property test 1 Rate of reduction in moisture: 3.0%

## C[N+](C)(C)CCO.O=[PH2][O-] [Compound C34]
[3]
  Water retention property test 1 Pre-test moisture rate: 20.0%
  Water retention property test 1 Post-test moisture rate: 19.4%
  Water retention property test 1 Rate of reduction in moisture: 3.0%

## CC[N+](C)(C)CCO.CS(=O)(=O)[O-] [Compound C36]
[3]
  Water retention property test 1 Pre-test moisture rate: 20.0%
  Water retention property test 1 Post-test moisture rate: 19.6%
  Water retention property test 1 Rate of reduction in moisture: 2.0%

## C[N+](C)(CCO)CC(O)CO.[Cl-] (stereo not drawn) [Compound C37]
[3]
  Water retention property test 1 Pre-test moisture rate: 20.0%
  Water retention property test 1 Post-test moisture rate: 18.3%
  Water retention property test 1 Rate of reduction in moisture: 8.3%

## C[N+](C)(CCO)CC(O)C[N+](C)(C)CCO.[Cl-].[Cl-] [Compound C38]
[3]
  Water retention property test 1 Pre-test moisture rate: 20.0%
  Water retention property test 1 Post-test moisture rate: 18.1%
  Water retention property test 1 Rate of reduction in moisture: 9.5%

## NCCO.O=C1OC(C(O)CO)C(O)=C1O (stereo not drawn) [Compound C40]
[3]
  Water retention property test 1 Pre-test moisture rate: 20.0%
  Water retention property test 1 Post-test moisture rate: 19.5%
  Water retention property test 1 Rate of reduction in moisture: 2.3%

## O=C1OC(C(O)CO)C(O)=C1O.OCCNCCO (stereo not drawn) [Compound C41]
[3]
  Water retention property test 1 Pre-test moisture rate: 20.0%
  Water retention property test 1 Post-test moisture rate: 19.2%
  Water retention property test 1 Rate of reduction in moisture: 4.1%

## O=C1OC(C(O)CO)C(O)=C1O.OCCN(CCO)CCO (stereo not drawn) [Compound C42]
[3]
  Water retention property test 1 Pre-test moisture rate: 20.0%
  Water retention property test 1 Post-test moisture rate: 19.1%
  Water retention property test 1 Rate of reduction in moisture: 4.4%

## CC(C)(C)CO [Compound C44]
[3]
  Water retention property test 1 Pre-test moisture rate: 20.0%
  Water retention property test 1 Post-test moisture rate: 19.2%
  Water retention property test 1 Rate of reduction in moisture: 4.7%

## CC(CO)CO [Compound C45]
[3]
  Water retention property test 1 Pre-test moisture rate: 20.0%
  Water retention property test 1 Post-test moisture rate: 19.5%
  Water retention property test 1 Rate of reduction in moisture: 2.5%

## CCC(C)(CO)CO [Compound C48]
[3]
  Water retention property test 1 Pre-test moisture rate: 20.0%
  Water retention property test 1 Post-test moisture rate: 19.4%
  Water retention property test 1 Rate of reduction in moisture: 2.9%

## CCC(O)C(O)C(O)C(O)CO (stereo not drawn) [Compound C56]
[3]
  Pre-test moisture rate: 20.0%
  Post-test moisture rate: 19.7%
  Rate of reduction in moisture: 1.7%

## C[N+](C)(C)CCO.O=C1OC(C(O)CO)C([O-])=C1O (stereo not drawn) [Compound C57]
[3]
  Pre-test moisture rate: 20.0%
  Post-test moisture rate: 19.0%
  Rate of reduction in moisture: 5.0%

## C[N+](C)(C)CC(O)CC(=O)O.O=C1O[C@H]([C@@H](O)CO)C([O-])=C1O [Compound C58]
[3]
  Pre-test moisture rate: 20.0%
  Post-test moisture rate: 19.2%
  Rate of reduction in moisture: 4.1%

## CC(=O)OCC[N+](C)(C)C.O=C1O[C@H]([C@@H](O)CO)C([O-])=C1O [Compound C59]
[3]
  Pre-test moisture rate: 20.0%
  Post-test moisture rate: 19.3%
  Rate of reduction in moisture: 3.5%

## CC(O)C(=O)O.NCCCC(=O)O [Compound C60]
[3]
  Pre-test moisture rate: 20.0%
  Post-test moisture rate: 18.1%
  Rate of reduction in moisture: 9.9%

## CC(O)C(=O)O.NCCCCCC(=O)O [Compound C61]
[3]
  Pre-test moisture rate: 20.0%
  Post-test moisture rate: 18.1%
  Rate of reduction in moisture: 9.9%

## CC(O)C(=O)O.NC(CO)CO (stereo not drawn) [Working example C117]
[1]; 0~24 h
  Amount of moisture reduction in 0 to 24 h: 6.7 mg
  Amount of moisture reduction per hour: 0.3 mg/h
[1]; 24~96 h
  Amount of moisture reduction in 24 to 96 h: 20.1 mg
  Amount of moisture reduction per hour: 0.3 mg/h
[1]; 96~120 h
  Amount of moisture reduction in 96 to 120 h: 4.0 mg
  Amount of moisture reduction per hour: 0.2 mg/h
[1]
  Pre-test moisture rate: 20.0%
  Moisture rate after 24 h: 19.5%
  Moisture rate after 96 h: 17.8%
  Moisture rate after 120 h: 15.8%
  Moisture rate of hydrate: 16.6%

## CS(=O)(=O)O.NC(CO)CO [Working example C118]
[1]; 0~24 h
  Amount of moisture reduction in 0 to 24 h: 6.5 mg
  Amount of moisture reduction per hour: 0.3 mg/h
[1]; 24~96 h
  Amount of moisture reduction in 24 to 96 h: 20.0 mg
  Amount of moisture reduction per hour: 0.3 mg/h
[1]; 96~120 h
  Amount of moisture reduction in 96 to 120 h: 4.1 mg
  Amount of moisture reduction per hour: 0.2 mg/h
[1]
  Pre-test moisture rate: 20.0%
  Moisture rate after 24 h: 19.4%
  Moisture rate after 96 h: 17.6%
  Moisture rate after 120 h: 15.4%
  Moisture rate of hydrate: 16.1%
